Among the data in PubChem BioAssay AID1645863 (Buhrlage Lab, Dana-Farber Cancer Institute and Novartis …, 2021) are IC50 values, retold here.

Active and inactive are the calls of the source. The rule behind the calls is not given here.

Sequence of Ubiquitin carboxyl-terminal hydrolase 10 (Homo sapiens) (Q14694 whole entry, looked up): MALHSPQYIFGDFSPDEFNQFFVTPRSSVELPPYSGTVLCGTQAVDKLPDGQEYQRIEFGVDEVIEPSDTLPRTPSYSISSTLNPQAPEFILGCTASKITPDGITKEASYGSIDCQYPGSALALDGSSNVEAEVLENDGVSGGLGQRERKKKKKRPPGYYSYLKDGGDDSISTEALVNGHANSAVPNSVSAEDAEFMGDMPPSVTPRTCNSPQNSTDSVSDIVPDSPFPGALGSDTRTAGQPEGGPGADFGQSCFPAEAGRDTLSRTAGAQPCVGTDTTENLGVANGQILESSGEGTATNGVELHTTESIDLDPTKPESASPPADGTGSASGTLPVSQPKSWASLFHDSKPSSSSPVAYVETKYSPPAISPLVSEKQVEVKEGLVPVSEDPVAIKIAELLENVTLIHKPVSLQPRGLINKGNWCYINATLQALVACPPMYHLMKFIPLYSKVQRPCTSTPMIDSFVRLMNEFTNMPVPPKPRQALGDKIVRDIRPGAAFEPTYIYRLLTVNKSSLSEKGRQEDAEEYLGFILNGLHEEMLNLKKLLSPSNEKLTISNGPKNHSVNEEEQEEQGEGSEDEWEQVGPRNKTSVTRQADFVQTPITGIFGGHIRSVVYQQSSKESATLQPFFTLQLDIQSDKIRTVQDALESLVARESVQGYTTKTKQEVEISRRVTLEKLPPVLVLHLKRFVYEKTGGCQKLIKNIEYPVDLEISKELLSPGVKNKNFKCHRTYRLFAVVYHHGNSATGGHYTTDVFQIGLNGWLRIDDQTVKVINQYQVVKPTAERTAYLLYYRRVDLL

This assay has as its target Ubiquitin carboxyl-terminal hydrolase 10 (Homo sapiens) (UniProt Q14694). Kind of assay: primary hit verification, biochemical, ubiquitin-specific protease 10 deubiquitylase inhibitors, concentration-effect titration (AID 1645863).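 Note: potency values describe inhibition of USP10 cleavage of a fluorogenic ubiquitin substrate.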 The settings on record: USP10 deubiquitinase enzymatic assay.
As to `O=C(Nc1c2c(nn1-c1ccc([N+](=O)[O-])cc1)CSC2)c1c(F)cccc1F`, the IC50 was > 40 µM (inactive).
In the case of `CCc1cccc(CC)c1NC(=O)COC(=O)c1cc2cccc(OC)c2oc1=O`, the IC50 is > 40 µM (inactive).
On to `COc1cc2c(=O)n(Cc3ccccc3)c(=O)n(CC(=O)N3CCCc4ccccc43)c2cc1OC`, for which the IC50 was 12.7 µM.
With `O=C(COc1ccc(N2CC(C(=O)NCc3ccc4c(c3)OCO4)CC2=O)cc1)Nc1ccc(Cl)cc1` (stereo not given) the figure was 11.8 µM.
On to `O=C(Cn1cnc(-c2noc(-c3cccc(F)c3)n2)c1)Nc1ccccc1`, for which the 50% inhibitory concentration (IC50) was 39.8 µM.
With `O=C(Cn1c(=O)n(Cc2ccccc2)c(=O)c2ncccc21)NCc1ccccc1Cl` the figure was > 40 µM (inactive); with `COc1ccc(-c2cc(-c3ccc(F)cc3)[nH]c(=O)c2C#N)cc1`, 18.3 µM; with `Cc1cc(NC(=O)Cn2c(=O)n(CCCCC(=O)NCc3ccco3)c(=O)c3ccccc32)ccc1Br`, 14.6 µM.
`CCC(=O)Nc1nc2cc(NC(=O)Nc3cc(C)cc(C)c3)ccc2s1`: the IC50 is > 40 µM (inactive).
As to `CNC(=O)c1cc2nc(N(C)C)n(-c3ccc(F)cc3)c2s1`, the IC50 was > 40 µM (inactive).
Regarding `CCOc1ccccc1NC(=O)Cn1c(=O)n(CCC(=O)NCCc2ccc(OC)c(OC)c2)c(=O)c2ccccc21`, the IC50 was > 40 µM (inactive).
Consider `O=C(OC1CSc2nc3ccccc3n2C1)c1ccc([N+](=O)[O-])o1` (stereo not given), for which the IC50 is 22.7 µM.
With `Cc1ccc(NC(=O)Nc2ccc(C)n(CC(=O)Nc3ccc(C)cc3C)c2=O)cc1` the figure was 21.9 µM.
On to `N#Cc1ccc(NC(=O)Nc2cccn(Cc3ccccc3F)c2=O)cc1`, for which the IC50 is > 40 µM (inactive).
Next, `Cn1cc(C(=O)Nc2ccccc2)c2[nH]c(=O)n(Cc3ccccc3)c(=O)c21`: > 40 µM (inactive); `O=C(O)c1ccccc1C(=O)Nc1ccc(SC(C(=O)Nc2ccccc2Cl)c2ccccc2)cc1` (stereo not given): 16.8 µM.
Take `CC(NC(=O)c1ccccc1)c1nc2ccccc2n1CC(=O)Nc1ccc(OC(F)(F)F)cc1` (stereo not given): the IC50 is 37.9 µM.
Next, `CCOC(=O)N1CCN(C(=O)c2ccc(CS(=O)c3ccccc3Cl)o2)CC1` (stereo not given): > 40 µM (inactive); `COc1ccc(CC(=O)Nc2ccccc2-c2nc3ccccc3[nH]2)cc1OC`: 36.7 µM.
With `O=C(O)c1cccc(NC(=O)C(Sc2cccc(NC(=O)c3cccc(Cl)c3)c2)c2ccccc2)c1` (stereo not given) the figure was 9.91 µM; with `Cc1cc(-c2ccc(S(=O)(=O)NCc3ccc(Cl)cc3)s2)on1`, > 40 µM (inactive); with `COc1ccc(Cl)cc1NC(=O)c1nc(-c2cn(-c3ccccc3)nn2)no1`, 14.1 µM.
With `CC1=C(Cn2c3cccc(=O)c-3nc3ccccc32)CCC(C)(C)C1` the figure was 5.79 µM.
As for `Cc1cc(C(F)(F)F)n2nc(C3CCN(C(=O)c4cnn(C)c4C)C3)cc2n1` (stereo not given), the IC50 is > 40 µM (inactive).
Next, `COc1ccc(NC(=O)Cn2c(=O)n(CCCC(=O)NC3CCCC3)c(=O)c3cc(Cl)ccc32)c(OC)c1`: 27.8 µM.
Next, `Cc1nnc2ccc(-c3ccc(NC(=O)c4ccc(Br)o4)cc3)nn12`: > 40 µM (inactive).
With `Cn1c(=O)n(CCc2ccccc2)c(=O)c2c1nc1n2CCN1Cc1ccccc1` the figure was > 40 µM (inactive).
Regarding `Cc1[nH]nc(NC(=O)C2COc3ccccc3O2)c1-c1ccccc1` (stereo not given), the IC50 was > 40 µM (inactive).
With `CCCCCCCCCc1cc(OC(=O)c2c(CCCCCCCCC)cc(O)cc2O[C@@H]2O[C@H](CO)[C@@H](O)[C@H](O)[C@H]2O)cc(O)c1C(=O)O` the figure was 3.43 µM.
Next, `Cc1ccc(C(=O)NCc2ccc(C(=O)Nc3ccc(Cl)cc3)o2)cc1`: > 40 µM (inactive); `Cc1cc(NC(=O)c2cc(-c3cccnc3)n[nH]2)ccc1Br`: 28.6 µM; `Oc1cccc2c(-c3ccc(O)c4c(O)cccc34)ccc(O)c12`: > 40 µM (inactive).
With `Cn1c(=O)[nH]c2nncnc2c1=O`, the IC50 was > 40 µM (inactive).
With `Cc1ccc(C(=O)O)cc1NC(=O)C(Sc1cccc(NC(=O)c2cccc(Cl)c2)c1)c1ccccc1` (stereo not given) the figure was > 40 µM (inactive); with `O=C(Cn1ccc2ccn(Cc3ccccc3)c2c1=O)Nc1ccccc1Cl`, > 40 µM (inactive); with `Cc1cc(NS(=O)(=O)c2ccc(NC(=O)COc3ccc(Cl)cc3)cc2)no1`, > 40 µM (inactive).
With `NC(=O)c1nc(-c2cccnc2)nc2c1[nH]c(=O)n2-c1ccc2c(c1)OCO2` the figure was > 40 µM (inactive); with `N#Cc1cn2c(nc1-c1ccc(Cl)cc1)nc1ccccc12`, 19.5 µM; with `N#Cc1cccnc1N1CCN(C(=O)Nc2cccc3ccccc23)CC1`, > 40 µM (inactive).
Next, `COc1ccc(Oc2cc3n(c(=O)n2)CCc2cc(OC)c(OC)cc2-3)cc1`: > 40 µM (inactive); `COc1ccc(-c2cc3nc([C@H](C)NC(=O)Cc4ccccc4C)nn3cn2)cc1`: > 40 µM (inactive); `O=C(Nc1cccc(-c2nc3cnccc3o2)c1)c1ccc(Br)o1`: > 40 µM (inactive).
As to `Cc1ccc(S(=O)(=O)N2CCC3(CC2)OC(=O)Nc2ccccc23)cc1`, the IC50 was > 40 µM (inactive).
With `CCn1cc2c(n1)c(=O)n(Cc1ccccc1)c(=O)n2CC(=O)NCc1ccc(C)cc1` the figure was > 40 µM (inactive).
With `O=C(Nc1ccncc1)c1cn(Cc2ccccc2)cc2c(=O)n(-c3ccccc3)nc1-2` the figure was > 40 µM (inactive); with `Nc1ccc(C(=O)OCC(=O)NC2CCCc3ccccc32)cc1[N+](=O)[O-]` (stereo not given), 37.7 µM; with `CCOC(=O)C1CCN(Cc2cc(=O)oc3cc(O)c(O)cc23)CC1`, 1.68 µM.
With `O=C1c2c(O)c(Cl)cc3c2[C@@]2(Oc4ccc(O)c5c4[C@]3(O2)[C@@H]2O[C@@H]2C5=O)[C@@H]2O[C@H]12` the figure was 1.31 µM; with `COc1ccc(C(=O)Nc2nc(-c3ccc4c(c3)NC(=O)CO4)c(C)s2)cc1OC`, > 40 µM (inactive); with `O=C(Nc1ccccc1C(=O)O)c1ccc(CSCc2ccccc2)cc1`, 10.4 µM.
Consider `COc1ccc(CNC(=O)CN2C(=O)CC(c3ccccc3)=Nc3ccccc32)cc1`, for which the IC50 was > 40 µM (inactive).
Turning to `Cc1cccc(-c2nnn3c2nc(NCC2CCCO2)c2ccccc23)c1` (stereo not given), the IC50 is > 40 µM (inactive).
With `N=C1/C(=C/c2cn(Cc3ccc(F)cc3)c3ccccc23)C(=O)N=C2SC(Cc3ccccc3)=NN12` the figure was 17.4 µM; with `CN1CCc2c(C#N)c(N3CCOCC3)nc(NCC3CCCO3)c2C1` (stereo not given), > 40 µM (inactive); with `CCOc1ccc(-c2noc(-c3nn(-c4cccc(OC)c4)ccc3=O)n2)cc1`, > 40 µM (inactive).
With `CCOc1ccc(-c2nc(SCC(=O)Nc3cccc(C)c3)n3[nH]c(=O)cc3n2)cc1` the figure was > 40 µM (inactive).
Next, `O=C(NCCc1cccnc1)c1ccn(-c2ccc3ccccn23)n1`: > 40 µM (inactive); `Cc1cc(O)c(=O)cc2c1C[C@H]1CC(C)(C)/C=C/C[C@@]3(C)Oc4cc(=O)c(O)cc(C)c4C[C@@H]3C[C@H](O)[C@]1(C)O2`: > 40 µM (inactive).
Regarding `Cc1ccc2[nH]c3c(=O)n(Cc4ccc(N(C)C)cc4)cnc3c2c1`, the IC50 is 19.5 µM.
With `O=C1Nc2ccccc2C(=O)C1C(c1ccc(Cl)cc1)C1C(=O)Nc2ccccc2C1=O` (stereo not given) the figure was 10.2 µM.
